# Data from patent EP3381906A1, “COMPOUNDS FOR USE AS HEPARANASE INHIBITORS” (Leadiant Biosciences SA, priority 2017, dated 2018).
# What was measured:
# U87MG = assay: Matrigel cell invasion assay; type: cell-based, human; conditions: Homo sapiens, U-87 MG, Conc. 10 µM
# [1] = test system: HT1080 (human fibrosarcoma); assay: Cell adhesion assay on matrigel coated wells; type: cell-based; conditions: HT1080, Conc. 10 µM; percent of adhesion with respect to the control (100%)
# Method: Cell surface, non-integrin molecules such as heparan sulfate proteoglycans (HSPGs) may be involved in the regulation of early adhesive stages of cell-ECM interactions. A cell adhesion assay has been employed to determine if the newly designed heparanase inhibitors were able to interfere with adhesion properties of cancer cells.
# HT1080 (human fibrosarcoma) cells were treated for 18-20 h with test compounds in complete medium supplemented with 10% FCS. Then cells were collected, washed in complete medium, and added to matrigel coated wells in triplicate, at previously identified optimal seeding density, and incubated at 37 °C in complete medium for times ranging from 15 minutes to 4h, according to the cell line. After incubation, the wells were washed three times with serum-free medium and the remaining firmly attached cells were stained with crystal-violet 0.1%. Optical density was measured at 560 nm by Victor 3 (Perkin-Elmer) plate analyzer. Each experiment was repeated three times.
# [2] = test system: U2OS (human osteosarcoma); assay: SRB Cell Cytotoxicity Assay; type: cell-based; conditions: treated for 72h, read-out: Concentration of test compounds at which the cell growth is inhibited by 50 % U2OS
# Description: (§1) SRB Cell Cytotoxicity Assay is an assay based upon the quantitative staining of cellular proteins by sulforhodamine B (SRB). This assay can be used for high-throughput drug screening (Vichai & Kirkitara, Nature Protocol. 2006, 1, 112). Sulforhodamine B is an anionic aminoxanthene dye that forms an electrostatic complex with the basic amino acid residues of proteins under moderately acid conditions, which provides a sensitive linear response.
# (§2) To assess a putative antiproliferative activity of the selected compounds, HT1080 (human fibrosarcoma), U87MG (human glioblastoma astrocytoma) and U2OS (human osteosarcoma) cell lines were treated for 72h, in triplicate, with increasing concentrations of heparanase inhibitors. Inhibition of cell proliferation was then measured by the classical colorimetric SRB Cell Cytotoxicity assay. Absorbance was measured by spectrophotometer at a wavelength of 510 nm and cell proliferation was determined as percent with respect to control cells (cells treated with the vehicle alone). EC50 values were then determined by GraphPad Prism.
# [3] = test system: HT1080 (human fibrosarcoma); assay: SRB Cell Cytotoxicity Assay; type: cell-based; conditions: HT-1080, HT1080, treated for 72h, read-out: Concentration of test compounds at which the cell growth is inhibited by 50 % HT1080
# Description: as §1, §2
# [4] = test system: U87MG (human glioblastoma astrocytoma); assay: SRB Cell Cytotoxicity Assay; type: cell-based; conditions: U-87 MG, treated for 72h, read-out: Concentration of test compounds at which the cell growth is inhibited by 50 % U87MG
# Description: as §1, §2
# heparanase = target: T1, heparanase (Homo sapiens, UniProt Q9Y251); assay: AGA*IA assay: heparanase-catalyzed fondaparinux cleavage, colorimetric (WST-1); type: biochemical; conditions: 2.5 nM heparanase, 100 µM fondaparinux, pH 5.0, 3 h at 37°C; class symbols; read-out: AGAIA assay (IC50)
# T1 construct: 100 µM fondaparinux, 2.5 nM heparanase and serial dilutions of test compounds
# T1 sequence (Q9Y251 158-543 limits assumed): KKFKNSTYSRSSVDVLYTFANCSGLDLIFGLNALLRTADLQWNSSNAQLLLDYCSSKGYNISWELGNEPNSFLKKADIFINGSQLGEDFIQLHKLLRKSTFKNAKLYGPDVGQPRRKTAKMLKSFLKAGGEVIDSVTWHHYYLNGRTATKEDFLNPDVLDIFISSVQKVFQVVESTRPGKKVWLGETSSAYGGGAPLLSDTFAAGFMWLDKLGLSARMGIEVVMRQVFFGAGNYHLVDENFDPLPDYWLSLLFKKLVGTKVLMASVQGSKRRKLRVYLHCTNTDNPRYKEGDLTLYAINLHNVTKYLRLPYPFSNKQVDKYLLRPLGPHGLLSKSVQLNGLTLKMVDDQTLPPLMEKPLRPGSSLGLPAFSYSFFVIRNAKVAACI
# T1 sequence (Q9Y251 36-109 limits assumed): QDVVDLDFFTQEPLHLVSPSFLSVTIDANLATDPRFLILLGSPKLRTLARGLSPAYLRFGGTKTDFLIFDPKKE
# Method: All compounds were tested in a simple, accurate and robust microplate assay based on the cleavage of the synthetic heparin fragment, the pentasaccharide Fondaparinux (AGA*IA). This assay was originally developed by Hammond and coworkers [Hammond E, Li CP, Ferro V. Development of a colorimetric assay for heparanase activity suitable for kinetic analysis and inhibitor screening. […] Fondaparinux is cleaved by heparanase to generate a reducing disaccharide, which can be quantitatively measured via a colorimetric or a fluorescence assay, the last by the fluorescent sensor polymer-H [Schiemann S, Lühn S, Alban S. Development of both colorimetric and fluorescence heparinase activity assays using fondaparinux as substrate.
# The assay measures the appearance of the disaccharide product of heparanase-catalyzed fondaparinux cleavage colorimetrically using the tetrazolium salt WST-1. Assay was essentially performed as described with minor modifications. Briefly, NUNC ELISA 96-well plates were pre-treated with a solution of 4% BSA (bovin serum albumin) in phosphate-buffered saline containing 0.05% Tween 20 (PBST), for 2 h at 37°C, then washed three times with PBST, dried by tapping on paper towel and stored at -20°C. Before use, once again, the plates were washed with PBST.
# Then, the absorbance at 560 nm was measured through a microplate reader (Victor 3, Perkin Elmer).
# Finally, the measurements were corrected by subtracting both the reagent background and the inner absorbance value of test compound.
# [5] = test system: HT1080 (human fibrosarcoma); assay: Matrigel cell invasion assay; type: cell-based; conditions: HT-1080, HT1080, Conc. 10 µM
# Method: Heparanase inhibitors were then evaluated for their activity on the invasive potential of HT1080 (human fibrosarcoma) human cell lines, using the Matrigel cell invasion assay which allows to assess the cell invasion ability of malignant and normal cells.
# Invasion assay was performed using BioCoat cell culture inserts (BioCoat 8.0µm PET Membrane 24 Well Permeable Supports, Corning). Filters were coated with 100 µl of 300 µg/ml Matrigel dissolved in coating buffer (0.01M Tris pH 8.0, 0.7% NaCl) (Becton-Dickinson Sciences). DMEM (Dulbecco's Modified Eagle's Medium) containing 5% FBS was added to the lower chambers. Cells were pre-treated with heparanase inhibitors for 24 h, detached and added to the upper chambers in media containing the inhibitors. Cells were allowed to invade for 24 h at 37°C in a CO2 incubator and then unmigrated cells were removed from the upper chamber with a cotton swab. The invading cells were fixed, stained with 0.1% crystal violet for 10 min at room temperature, photographed and counted under inverted microscope.
# Test compounds were analyzed at fixed concentration for several fields, in duplicates. Activity of test compounds was compared to the reference compound. Activity of most interesting compound was confirmed in a second cell invasion assay. Data were expressed as the percent invasion with respect to cell migration through uncoated insert membrane. (Table 5)
compound,measurement,setting,value
COc1cc(N=Nc2cc(S(=O)(=O)O)cc3cc(S(=O)(=O)O)cc(O)c23)c(C)cc1NC(=O)Nc1cc(C)c(N=Nc2cc(S(=O)(=O)O)cc3cc(S(=O)(=O)O)cc(O)c23)cc1OC [SST0597],inhibition at 10 µM,U87MG,< 50%
same,Adhesion Assay (%) HT1080,[1],∼ 85%
same,EC50,[2],> 10 µM
same,EC50,[3],> 10 µM
same,EC50,[4],> 10 µM
same,IC50,heparanase,0.05 to 0.49 µM
same,inhibition at 10 µM,[5],> 90%
